Test results as given in PubChem BioAssay (NCI).
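Interpolation was linear, between the two tested concentrations surrounding the appropriate level; five concentrations were tested over 48 hours in 96-well plates. GI50 marks 50% less growth. TGI marks complete inhibition of growth.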

How the values were obtained:
Assay in all cases: growth of human tumour cells (NCI), 48 h
MDA-MB-435 = tested on: MDA-MB-435
HOP-62 NSCLC = tested on: HOP-62 NSCLC
TK-10 renal = tested on: TK-10 renal
IGROV1 ovarian = tested on: IGROV1 ovarian
UACC-62 melanoma = tested on: UACC-62 melanoma
HCT-15 colon = tested on: HCT-15 colon
SK-MEL-2 melanoma = tested on: SK-MEL-2 melanoma
OVCAR-3 ovarian = tested on: OVCAR-3 ovarian
HOP-92 NSCLC = tested on: HOP-92 NSCLC
RXF 393 renal = tested on: RXF 393 renal
A549 NSCLC = tested on: A549 NSCLC
SF-295 CNS = tested on: SF-295 CNS
M14 melanoma = tested on: M14 melanoma
UO-31 renal = tested on: UO-31 renal
RPMI-8226 leukemia = tested on: RPMI-8226 leukemia
MCF7 breast = tested on: MCF7 breast
HS 578T breast = tested on: HS 578T breast
KM12 colon = tested on: KM12 colon
HCT-116 colon = tested on: HCT-116 colon
PC-3 prostate = tested on: PC-3 prostate
NCI-H23 lung = tested on: NCI-H23 lung
SK-OV-3 ovarian = tested on: SK-OV-3 ovarian
SF-539 CNS = tested on: SF-539 CNS
MOLT-4 leukemia = tested on: MOLT-4 leukemia
HT29 colon = tested on: HT29 colon
NCI-H522 lung = tested on: NCI-H522 lung
CCRF-CEM leukemia = tested on: CCRF-CEM leukemia
NCI-H460 lung = tested on: NCI-H460 lung
COLO 205 colon = tested on: COLO 205 colon
SK-MEL-5 melanoma = tested on: SK-MEL-5 melanoma

In the case of `Cc1cc2nc3c4ccccc4n(CCCN(C)C)c3nc2cc1C`, the TGI (MDA-MB-435) is reported as 4.52 µM, the GI50 (HOP-62 NSCLC) is reported as 1.57 µM and the TGI (HOP-62 NSCLC) is reported as 5 µM. It also gave a GI50 (TK-10 renal) of 2.58 µM, a TGI (TK-10 renal) of 8.64 µM and a GI50 (IGROV1 ovarian) of 1.76 µM. For the same compound, the TGI (IGROV1 ovarian) was 4.11 µM, the GI50 (UACC-62 melanoma) was 1.89 µM and the TGI (UACC-62 melanoma) was 4.97 µM. For the same compound, the GI50 (HCT-15 colon) was 1.8 µM, the TGI (HCT-15 colon) was 3.56 µM and the GI50 (SK-MEL-2 melanoma) was 1.68 µM. For the same compound, the TGI (SK-MEL-2 melanoma) was 3.21 µM, the GI50 (OVCAR-3 ovarian) was 2.46 µM and the TGI (OVCAR-3 ovarian) was 6 µM. The GI50 (HOP-92 NSCLC) was 1.89 µM, the TGI (HOP-92 NSCLC) was 9.4 µM and the GI50 (RXF 393 renal) was 2.28 µM. For the same compound, the TGI (RXF 393 renal) was 7.09 µM, the GI50 (A549 NSCLC) was 1.5 µM and the TGI (A549 NSCLC) was 4.04 µM. It also gave a GI50 (SF-295 CNS) of 2.29 µM, a TGI (SF-295 CNS) of 8.79 µM and a GI50 (M14 melanoma) of 1.69 µM. For the same compound, the TGI (M14 melanoma) was 3.5 µM, the GI50 (UO-31 renal) was 0.6 µM and the TGI (UO-31 renal) was 3.27 µM. The GI50 (RPMI-8226 leukemia) was 2.65 µM, the TGI (RPMI-8226 leukemia) was 13.1 µM and the GI50 (MCF7 breast) was 1.95 µM. For the same compound, the TGI (MCF7 breast) was 4.88 µM, the GI50 (HS 578T breast) was 2.95 µM and the TGI (HS 578T breast) was 14.8 µM. It also gave a GI50 (KM12 colon) of 3.31 µM, a TGI (KM12 colon) of 11.3 µM and a GI50 (HCT-116 colon) of 1.77 µM. For the same compound, the TGI (HCT-116 colon) was 9 µM, the GI50 (PC-3 prostate) was 2.71 µM and the TGI (PC-3 prostate) was 17.3 µM. The GI50 (NCI-H23 lung) was 1.71 µM, the TGI (NCI-H23 lung) was 4.1 µM and the GI50 (SK-OV-3 ovarian) was 2.05 µM. The TGI (SK-OV-3 ovarian) was 5.93 µM, the GI50 (SF-539 CNS) was 2.16 µM and the TGI (SF-539 CNS) was 5.51 µM. It also gave a GI50 (MOLT-4 leukemia) of 1.94 µM, a TGI (MOLT-4 leukemia) of 6.41 µM and a GI50 (HT29 colon) of 1.45 µM. It also gave a TGI (HT29 colon) of 4.53 µM, a GI50 (NCI-H522 lung) of 1.44 µM and a TGI (NCI-H522 lung) of 3.45 µM. The GI50 (CCRF-CEM leukemia) was 3.05 µM, the TGI (CCRF-CEM leukemia) was 11.7 µM and the GI50 (NCI-H460 lung) was 2.31 µM. For the same compound, the TGI (NCI-H460 lung) was 6.76 µM, the GI50 (COLO 205 colon) was 1.32 µM and the TGI (COLO 205 colon) was 2.85 µM. The GI50 (SK-MEL-5 melanoma) was 2.21 µM and the TGI (SK-MEL-5 melanoma) was 5.12 µM.
